Assay results published in US11530205B2, “GLP-1 receptor modulators” (RECEPTOS LLC, priority 2017, dated 2022).
pEC50: −log10 of the molar value.

molecular target: T1, Human GLP-1R (Homo sapiens, UniProt P43220); assay: EC20 GLP-1(9-36) PAM cAMP assay: dose response of compound in the presence of fixed concentration of GLP-1(9-36); type: cell-based; conditions: Human GLP-1R CRE-bla CHO-K1 cells, 60 nM GLP-1(9-36), 30 minutes at 37° C.
T1 construct: expressed in transfected cells; host or cells: CRE-bla CHO-K1 (Chinese hamster ovary) cells
T1 sequence (P43220 24-463): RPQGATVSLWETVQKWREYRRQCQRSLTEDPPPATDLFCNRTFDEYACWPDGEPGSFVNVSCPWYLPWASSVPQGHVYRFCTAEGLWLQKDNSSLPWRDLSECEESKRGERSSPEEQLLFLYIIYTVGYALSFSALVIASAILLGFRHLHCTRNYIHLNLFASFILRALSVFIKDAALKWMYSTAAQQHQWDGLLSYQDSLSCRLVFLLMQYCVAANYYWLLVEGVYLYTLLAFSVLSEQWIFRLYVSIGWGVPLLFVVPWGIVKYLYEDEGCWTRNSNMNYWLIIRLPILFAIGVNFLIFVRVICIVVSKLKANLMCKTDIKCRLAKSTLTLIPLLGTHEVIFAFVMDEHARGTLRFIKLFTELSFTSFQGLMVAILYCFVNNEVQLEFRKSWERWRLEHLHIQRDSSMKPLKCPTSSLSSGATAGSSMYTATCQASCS
Protocol: EC20GLP-1(9-36) PAM cAMP Assay: Dose Response of Compound in the Presence of Fixed Concentration of GLP-1 (9-36)
Human GLP-1R CRE-bla CHO-K1 cells were cultured in growth medium (DMEM-High glucose, 10% dialyzed FBS, 0.1 mM NEAA, 25 mM Hepes, 100 U/mL penicillin/100 μg/mL streptomycin, 5 μg/mL Blasticidin, 600 μg/mL Hygromycin), trypsinized and plated in suspension into 384-well white flat bottom plates at 5000 cells/well in 12 μL assay buffer (Hank's Balanced Salt Solution, 10 mM Hepes, 0.1% BSA, pH 7.4). Each compound at a 5× concentration was diluted to a final concentration range of 10 to 0.01 μM (11 points) in assay buffer containing 1.5 mM IBMX and 4% DMSO. GLP-1(9-36) was diluted from 4.2 μM (30 x) to a final assay concentration of 60 nM in assay buffer containing 1.5 mM IBMX and 4% DMSO. Each compound concentration (5×) was added (3 μL), followed by 0.5 μL of GLP-1(9-36) and cells incubated for 30 minutes at 37° C. The peptide was added to the wells using siliconized tips. The reaction was stopped and levels of cAMP were quantified using the DiscoverX HitHunter cAMP kit according to the manufacturer's instructions and luminescence was detected using a SpectraMax M5 Multi-Mode Microplate reader. Luminescence was converted to total cAMP using a cAMP standard curve and data were analyzed by non-linear regression to determine the EC50 and Emax for each compound.

CC[C@H]1CC[C@H](C2CC=C(c3cnc(-c4ccc(CN(CC(=O)N5CC[C@H](C(=O)O)C5)C(=O)c5ccc(NC(=O)Cc6ccc(OC)cc6C(F)(F)F)cc5)cc4)nc3)CC2)CC1 (stereo partly drawn) [Compound 15] and CC[C@H]1CC[C@H](C2CC=C(c3cnc(-c4ccc(CN(CC(=O)O)C(=O)c5ccc(NC(=O)CCc6ccc(OC)cc6)cc5)cc4)nc3)CC2)CC1 (stereo partly drawn) [Compound 93] cannot be ordered by pEC50: over 6.10 for the first, over 6.10 for the second.

Compared with COc1ccc(CC(=O)Nc2ccc(C(=O)N(CC(=O)O)Cc3ccc(-c4ncc(C5=CCC(C(C)(C)C)CC5)cn4)cc3)cc2)c(C(F)(F)F)c1 (stereo not drawn) [Compound 77], COc1ccc(CC(=O)Nc2ccc(C(=O)N(CC(=O)O)Cc3ccc(-c4cnc(C5=CCC(C(C)C)CC5)cn4)cc3)cc2)cc1 (stereo not drawn) [Compound 88] is higher in pEC50: 5.30 to 5.60 for the first, 5.60 to 6.10 for the second.

First: CC[C@H]1CC[C@@H]([C@@H]2CC=C(c3cnc(-c4ccc(CN(CC(=O)O)C(=O)CNC(=O)Cc5ccc(OC)cc5)cc4)nc3)CC2)CC1 [Compound 118]
Second: CC[C@H]1CC[C@H](C2CC=C(c3cnc(-c4ccc(CN(CC(=O)O)C(=O)CCC(=O)CN5c6cccc7cccc(c67)S5(=O)=O)cc4)nc3)CC2)CC1 (stereo partly drawn) [Compound 127]
The pEC50 of the first is lower: 5.60 to 6.10 for the first, over 6.10 for the second. The second is the more potent here.
